Assay results taken from EP1980567A1, “New disaccharide-based tensides and emulsifiers” (Beiersdorf AG, priority 2005, dated 2006).
Each block holds one molecule with its values, some of them ahead of it.

Legend:
[1] = Gel formation in water: phase transition temperature (Tgel) from gel to isotropic solution; type: physicochemical; conditions: for Übergangstemperatur: 0.1 Gew.%, gel up to this temperature, liquid above
Method: Tabelle 1: Phasenumwandlungstemperaturen (Tgel) vom Gel zur isotropen Lösung für unterschiedliche Konzentrationen an Lipid (Abweichung ± 0.5 °C). Die Verbindung bildet ein stabiles Gel und oberhalb von Tgel eine klare Lösung. Tgel ist definiert als die Temperatur bei der das Gel sich beginnt aufzulösen. Die Temperaturspanne des Übergangs beträgt im Normalfall 2 bis 5 °C.

[2] = Gel formation in dimethyl sulfoxide (DMSO) / water mixtures; type: physicochemical; set-up: key: G=Gel; Gp = Teilweise geliert; I = Isotrope Lösung; S = Fest beim Abkühlen (bedingt durch gefrorenes Lösungsmittel); conditions: 0.1 Gew.%
Method: Tabelle 2: Phasenumwandlungstemperaturen (Tgel) vom Gel zur isotropen Lösung für unterschiedliche Lösungsmittelzusammensetzung (Dimethylsulfoxid, DMSO und Wasser, H2O) bei gleichbleibender Lipidkonzentration (0.1 Gew.%) (Abweichung ± 0.5 °C). Die Verbindung formt klare Gele oder geliert nur teilweise, oberhalb der Übergangstemperatur bildet sie eine klare Lösung. Tgel ist definiert als die Temperatur bei der das Gel sich beginnt aufzulösen. Die Temperaturspanne des Übergangs beträgt im Normalfall 2 bis 5 °C.

[3] = Foaming capacity and foam stability of aqueous solutions in 100 mL measuring cylinders; type: physicochemical; conditions: 50°C; immediate volume and 30 min. volume
Method: Messungen werden in 100 mL Meßzylindern durchgeführt. Vor Benutzung wird der Meßzylinder mit konzentrierter Nitriersäure gefüllt und 24 Stunden gelagert, danach mit bidestilliertem Wasser für weitere 24 Stunden. Lösungen werden durch Einwaage des Lipids und Zugabe von bidestilliertem Wasser bis zu einem Gesamtgewicht von 10 g (ca. 10 mL) hergestellt. Lösungen der jeweils niedrigeren Konzentration werden durch Verdünnung der ersten hergestellt. Vor der Messung wird der Meßzylinder bei der gewünschten Temperatur gelagert. Zur Schaumbildung wird der Meßzylinder 20 mal innerhalb von 30 Sekunden umgeschwenkt. Die Messung wird bis zu einer Abweichung von nicht mehr als 5 % wiederholt. Schaumvolumina werden direkt nach dem Schwenken des Zylinders (Schäumungsvermögen) und nach 30 Minuten (Schaumstabilität) bestimmt. '

[4] = Foam image and size distribution of the gas bubbles; type: physicochemical; conditions: 1 Gew.% in Wasser
Method: Schaumbild und Größenverteilung der Gasbläschen nach 0 min. (Abb. 2 und 3) und nach 10 min. (Abb. 4 und 5) von Lac-EG-C12 in einer Gesamtkonzentration von 1 Gew.%. in Wasser. Man erkennt, daß der Schaum zu Beginn fast ausschließlich aus Bläschen mit einer Porengröße von unter 10000 µm^2 besteht. Nach 10 min. wird die Größenverteilung etwas flacher, wobei immer noch rund ein Viertel der Bläschen eine Größe von unter 10000 µm^2 aufweist.

[5] = Foam behaviour on hair / in the hand; conditions: 1 Gew% in Wasser, with hair strands, rubbed in the hand; single component
Text: Hier zeigte sich erstaunlicherweise das die erfindungsgemäßen Verbindungen eine vergleichbare Schaumbildung auf der Haut oder dem Haar wie z.B. Laurylethersulfat zeigen, jedoch in deutlich niedrigeren Einsatzkonzentrationen. Aus den Daten für Lac-EG-C12 (Tab. 10) war nicht unbedingt zu erwarten, dass es sich in Wasser beim Verreiben des Tensids in der Hand um einen guten Schaumbildner handelt. Auch in Gegenwart von Haaren wird beim Verreiben des Tensids eine Schaumbildung beobachtet. Dazu wurde 1 Gew% der erfindungsgemäßen Substanz in Wasser in Gegenwart von Haarsträhnen gelöst und in der Hand verrieben. Der Schaum ist wesentlich feinporiger als vergleichbare Schäume von Laurylethersulfat. […] Lac-Laureth-3.

[6] = Gel formation in water: phase transition temperature (Tgel) from gel to isotropic solution; type: physicochemical

Compound: CCCCCCCCCCCCOCCO[C@@H]1O[C@H](CO)[C@@H](O[C@@H]2O[C@H](CO)[C@H](O)[C@H](O)[C@H]2O)[C@H](O)[C@H]1O [Lac-EG-C12, (2'-Dodecyloxyethyl) 4-O-(β-D-galactopyranosyl)-β-D-glucopyranosid]
Tgel ([1]; 0.03 Gew.% (0.60 mM) in water): 10 °C
Tgel ([1]; 0.04 Gew.% (0.72 mM) in water): 21 °C
Tgel ([1]; 0.05 Gew.% (0.90 mM) in water): 30 °C
Tgel ([1]; 0.06 Gew.% (1.03 mM) in water): 35 °C
Tgel ([1]; 0.07 Gew.% (1.20 mM) in water): 38 °C
Tgel ([1]; 0.08 Gew.% (1.44 mM) in water): 40 °C
Tgel ([1]; 0.1 Gew.% (1.80 mM) in water): 43 °C
Übergangstemperatur [1]: 43 °C
Tgel ([1]; 0.13 Gew.% (2.41 mM) in water): 45 °C
Tgel ([1]; 0.2 Gew.% (3.61 mM) in water): 46 °C
Tgel ([1]; 0.5 Gew.% (9.02 mM) in water): 48 °C
Tgel ([1]; 1 Gew.% (18.04 mM) in water): 50 °C
Tgel ([1]; 5 Gew.% (90.20 mM) in water): 51 °C
Tgel ([1]; 10 Gew.% (180.40 mM) in water): 51 °C
Gelbildungsverhalten ([2]; H2O /DMSO 1:9, 4 °C): I
Gelbildungsverhalten ([2]; H2O /DMSO 1:9, 20 °C): I
Gelbildungsverhalten ([2]; H2O /DMSO 1:9, -27 °C): S
Gelbildungsverhalten ([2]; H2O /DMSO 2:8, 4 °C): I
Gelbildungsverhalten ([2]; H2O /DMSO 2:8, 20 °C): I
Gelbildungsverhalten ([2]; H2O /DMSO 2:8, -27 °C): S
Gelbildungsverhalten ([2]; H2O /DMSO 3:7, 4 °C): Gp
Gelbildungsverhalten ([2]; H2O /DMSO 3:7, 20 °C): I
Gelbildungsverhalten ([2]; H2O /DMSO 3:7, -27 °C): S
Gelbildungsverhalten ([2]; H2O /DMSO 4:6, 4 °C): G
Gelbildungsverhalten ([2]; H2O /DMSO 4:6, 20 °C): G
Gelbildungsverhalten ([2]; H2O /DMSO 4:6, 39 °C): Gp
Gelbildungsverhalten ([2]; H2O /DMSO 4:6, 50 °C): I
Gelbildungsverhalten ([2]; H2O /DMSO 4:6, -27 °C): S
Gelbildungsverhalten ([2]; H2O /DMSO 5:5, 4 °C): G
Gelbildungsverhalten ([2]; H2O /DMSO 5:5, 20 °C): G
Gelbildungsverhalten ([2]; H2O /DMSO 5:5, 39 °C): G
Gelbildungsverhalten ([2]; H2O /DMSO 5:5, 50 °C): I
Gelbildungsverhalten ([2]; H2O /DMSO 5:5, -27 °C): G
Gelbildungsverhalten ([2]; H2O /DMSO 6:4, 4 °C): G
Gelbildungsverhalten ([2]; H2O /DMSO 6:4, 20 °C): G
Gelbildungsverhalten ([2]; H2O /DMSO 6:4, 39 °C): G
Gelbildungsverhalten ([2]; H2O /DMSO 6:4, 50 °C): I
Gelbildungsverhalten ([2]; H2O /DMSO 6:4, -27 °C): S
Gelbildungsverhalten ([2]; H2O /DMSO 7:3, 4 °C): G
Gelbildungsverhalten ([2]; H2O /DMSO 7:3, 20 °C): G
Gelbildungsverhalten ([2]; H2O /DMSO 7:3, 39 °C): G
Gelbildungsverhalten ([2]; H2O /DMSO 7:3, 50 °C): I
Gelbildungsverhalten ([2]; H2O /DMSO 7:3, -27 °C): S
Gelbildungsverhalten ([2]; H2O /DMSO 8:2, 4 °C): G
Gelbildungsverhalten ([2]; H2O /DMSO 8:2, 20 °C): G
Gelbildungsverhalten ([2]; H2O /DMSO 8:2, 39 °C): G
Gelbildungsverhalten ([2]; H2O /DMSO 8:2, 50 °C): I
Gelbildungsverhalten ([2]; H2O /DMSO 8:2, -27 °C): S
Gelbildungsverhalten ([2]; H2O /DMSO 9:1, 4 °C): G
Gelbildungsverhalten ([2]; H2O /DMSO 9:1, 20 °C): G
Gelbildungsverhalten ([2]; H2O /DMSO 9:1, 39 °C): G
Gelbildungsverhalten ([2]; H2O /DMSO 9:1, 50 °C): I
Gelbildungsverhalten ([2]; H2O /DMSO 9:1, -27 °C): S
Schaumbildner (comparison with SLES) [3]: wesentlich bessere Schaumbildner als Natriumlauryethersulfat (SLES)
Porengröße der Bläschen ([4]; 0 min., almost all bubbles): < 10000 µm^2
Anteil der Bläschen mit einer Größe von unter 10000 µm^2 ([4]; nach 10 min.): ein Viertel
Schaumbildung auf Haar / in der Hand [5]: bester Schaumbildner
Gelbildung ([6]; 11 Gew.% Laurylethersulfat to 4 Gew.% of the β-anomer): Gelbildung aber wieder einsetzt
Gelbildung ([6]; mixture of 13 Gew% Laurylethersulfat with 2 Gew.% of the β-anomer): kein Gel mehr bildet
Anteil an α-Anomer, ab dem die Gelbildung durch das β-Anomer aufgehoben wird ([6]; mixture of α- and β-anomer): > 80 Gew.%

Übergangstemperatur [1]: 41 °C
Compound: CCCCCCCCCCCCOC(C)CO[C@@H]1O[C@H](CO)[C@@H](O[C@@H]2O[C@H](CO)[C@H](O)[C@H](O)[C@H]2O)[C@H](O)[C@H]1O (stereo partly drawn) [Lac-PG-C12, (2'-Dodecyloxypropyl) 4-0-(β-D-galactopyranosyl)-β-D-glucopyranosid]

Gelbildung ([1]; in water): kein Gel bildet
Compound: CCCCCCCCCCCCOCCO[C@H]1O[C@H](CO)[C@@H](O[C@@H]2O[C@H](CO)[C@H](O)[C@H](O)[C@H]2O)[C@H](O)[C@H]1O [Lac-α-EG-C12, (2'-Dodecyloxyethyl) 4-O-(β-D-galactopyranosyl)-α-D-glucopyranosid]

Compound: CCCCCCCCCCCCOCCO[C@@H]1O[C@H](CO)[C@@H](O[C@H]2O[C@H](CO)[C@@H](O)[C@H](O)[C@H]2O)[C@H](O)[C@H]1O [Mal-EG-C12, (2'-Dodecyloxyethyl) 4-O-(α-D-glucopyranosyl)-β-D-glucopyranosid]
Schaumbildner (comparison with SLES) [3]: wesentlich bessere Schaumbildner als Natriumlauryethersulfat (SLES)

Compound: CCCCCCCCCCCCOCCO[C@@H]1O[C@H](CO[C@H]2O[C@H](CO)[C@H](O)[C@H](O)[C@H]2O)[C@@H](O)[C@H](O)[C@H]1O [Mel-EG-C12, (2'-Dodecyloxyethyl) 6-O-(α-D-galactopyranosyl)-β-D-glucopyranosid]
Schaumbildner (comparison with SLES) [3]: wesentlich bessere Schaumbildner als Natriumlauryethersulfat (SLES)
